Several values for one entry are separate records, joined by “and”; a condition that tells them apart may be missing. Equal values may be shown once. Toxic doses and inconclusive results are not listed. No stated cut-off is given here; in the data, active means T/C of 150% or more; inactive means T/C below 125%.
Tested on: L1210 leukemia ip in BDF1 mice, survival T/C
Assay: NCI In Vivo Anticancer Drug Screen. Data for tumor model L1210 Leukemia (intraperitoneal) in B6D2F1 (BDF1) mice
Settings: endpoint: mean survival time, higher = longer survival
How it was run: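 Value reflects the ratio of survival in compound-treated mice to survival in vehicle-treated controls, with both groups carrying the same transplanted tumor.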

[1] = dose: 100.0 mg/kg/injection, schedule: Q04DX002 (ip), vehicle: Klucel (hydroxypropylcellulose) (HPC)
[2] = dose: 200.0 mg/kg/injection, schedule: Q04DX002 (ip), vehicle: Klucel (hydroxypropylcellulose) (HPC)
[3] = dose: 400.0 mg/kg/injection, schedule: Q04DX002 (ip), vehicle: Klucel (hydroxypropylcellulose) (HPC)
[4] = dose: 100.0 mg/kg/injection, schedule: Q04DX003 (ip), vehicle: saline with Tween-80
[5] = dose: 200.0 mg/kg/injection, schedule: Q04DX003 (ip), vehicle: saline with Tween-80
[6] = dose: 400.0 mg/kg/injection, schedule: Q04DX003 (ip), vehicle: saline with Tween-80
[7] = dose: 100.0 mg/kg/injection, schedule: Q01DX001 (ip), vehicle: saline
[8] = dose: 200.0 mg/kg/injection, schedule: Q01DX001 (ip), vehicle: saline
[9] = dose: 400.0 mg/kg/injection, schedule: Q01DX001 (ip), vehicle: saline
[10] = dose: 100.0 mg/kg/injection, schedule: Q01DX001 (ip), vehicle: carboxymethylcellulose (CMC)
[11] = dose: 200.0 mg/kg/injection, schedule: Q01DX001 (ip), vehicle: carboxymethylcellulose (CMC)
[12] = dose: 400.0 mg/kg/injection, schedule: Q01DX001 (ip), vehicle: carboxymethylcellulose (CMC)
[13] = dose: 100.0 mg/kg/injection, schedule: Q04DX003 (ip), vehicle: Klucel (hydroxypropylcellulose) (HPC)
[14] = dose: 200.0 mg/kg/injection, schedule: Q04DX003 (ip), vehicle: Klucel (hydroxypropylcellulose) (HPC)
[15] = dose: 100.0 mg/kg/injection, schedule: Q01DX009 (ip), vehicle: saline with Tween-80
[16] = dose: 100.0 mg/kg/injection, schedule: Q04DX003 (ip), vehicle: saline
[17] = dose: 200.0 mg/kg/injection, schedule: Q01DX009 (ip), vehicle: saline with Tween-80
[18] = dose: 200.0 mg/kg/injection, schedule: Q04DX003 (ip), vehicle: saline
[19] = dose: 400.0 mg/kg/injection, schedule: Q04DX003 (ip), vehicle: saline

Measured: T/C

Cn1cc(C(=Nc2ccccc2)Nc2ccccc2)c2ccccc21
inactive: dose: 75.0 mg/kg/injection, schedule: Q01DX001 (ip), vehicle: saline 94 % of control | dose: 150.0 mg/kg/injection, schedule: Q01DX001 (ip), vehicle: saline 94 % of control | dose: 300.0 mg/kg/injection, schedule: Q01DX001 (ip), vehicle: saline 89 % of control

NC(Cc1c[nH]c2c(N(CCCl)CCCl)cccc12)C(=O)O (centres undefined)
inactive: dose: 0.88 mg/kg/injection, schedule: Q01DX Z (ip), vehicle: methylcellulose (MC) 101 % of control | dose: 1.3 mg/kg/injection, schedule: Q01DX Z (ip), vehicle: methylcellulose (MC) 95 % of control | dose: 2.0 mg/kg/injection, schedule: Q01DX Z (ip), vehicle: methylcellulose (MC) 95 % of control | dose: 3.0 mg/kg/injection, schedule: Q01DX Z (ip), vehicle: methylcellulose (MC) 101 % of control | dose: 5.0 mg/kg/injection, schedule: Q01DX Z (ip), vehicle: methylcellulose (MC) 118 % of control | dose: 40.0 mg/kg/injection, schedule: Q01DX Z (ip), vehicle: methylcellulose (MC) 118 % of control

c1ccc(-c2c3ccccc3c(-c3ccccc3)c3c(-c4ccccc4)c4ccccc4c(-c4ccccc4)c23)cc1
inactive: [1] 95 % of control | [2] 98 % of control | [3] 109 % of control

CC(=O)OC(c1ccccc1)C1CCCCC1N1CCCCC1 (centres undefined)
inactive: dose: 100.0 mg/kg/injection, schedule: Q01DX001 (ip), vehicle: Klucel (hydroxypropylcellulose) (HPC) 95 % of control | dose: 200.0 mg/kg/injection, schedule: Q01DX001 (ip), vehicle: Klucel (hydroxypropylcellulose) (HPC) 96 % of control

O=CNO
inactive: dose: 50.0 mg/kg/injection, schedule: Q01DX001 (ip), vehicle: water 100 % of control | dose: 100.0 mg/kg/injection, schedule: Q01DX001 (ip), vehicle: water 110 % of control | dose: 200.0 mg/kg/injection, schedule: Q01DX001 (ip), vehicle: water 96 % of control | dose: 400.0 mg/kg/injection, schedule: Q01DX001 (ip), vehicle: water 107 % of control

CC(=O)N(C)CC(O)C(O)C(O)C(O)CO (centres undefined)
inactive: [4] 100 % of control | [5] 94 % of control | [6] 96 % of control

CC(CCN)(CCN)[N+](=O)[O-]
inactive: [7] 98 % of control | [8] 92 % of control | [9] 93 % of control

Clc1nc(Cl)nc(Cl)n1
inactive: dose: 100.0 mg/kg/injection, schedule: Q04DX002 (ip), vehicle: other 98 % of control | dose: 200.0 mg/kg/injection, schedule: Q04DX002 (ip), vehicle: other 95 % of control

CSc1cc2c(c(SC)c1[N+](=O)[O-])C(=O)c1ccccc1-2
inactive: [10] 102 % of control | [11] 98 % of control | [12] 102 % of control

C1CN2CCOB(O1)OCC2
inactive: dose: 69.0 mg/kg/injection, schedule: Q01DX009 (ip), vehicle: other 103 % of control | dose: 138.0 mg/kg/injection, schedule: Q01DX009 (ip), vehicle: other 98 % of control | dose: 275.0 mg/kg/injection, schedule: Q01DX009 (ip), vehicle: other 98 % of control

O=C(O)CCC(=O)c1ccc(C2CCCC2)c2ccccc12
inactive: [10] 91 % of control | [11] 93 % of control | [12] 89 % of control

Brc1ccc2c(c1)-c1ccccc1C1=NCCN12
inactive: dose: 5.0 mg/kg/injection, schedule: Q01DX009 (ip), vehicle: Klucel (hydroxypropylcellulose) (HPC) 100 % of control | dose: 10.0 mg/kg/injection, schedule: Q01DX009 (ip), vehicle: Klucel (hydroxypropylcellulose) (HPC) 101 % of control | dose: 20.0 mg/kg/injection, schedule: Q04DX003 (ip), vehicle: Klucel (hydroxypropylcellulose) (HPC) 86 % of control

O=C(OCC(Cl)(Cl)Cl)OCC(Cl)(Cl)Cl
inactive: [13] 98 % of control | [14] 98 % of control

Cc1cc(-c2ccccc2)c2ccccc2c1N(CC(=O)O)S(=O)(=O)c1ccccc1
inactive: [15] 105 % of control | [16] 98 % of control | [17] 93 % of control | [18] 104 % of control | [19] 102 % of control

ClCCN(CCCl)CCn1cnc2c(SCc3ccccc3)ncnc21
inactive: dose: 13.0 mg/kg/injection, schedule: Q01DX Z (ip), vehicle: carboxymethylcellulose (CMC) 103 % of control | dose: 20.0 mg/kg/injection, schedule: Q01DX Z (ip), vehicle: carboxymethylcellulose (CMC) 108 % of control | dose: 30.0 mg/kg/injection, schedule: Q01DX Z (ip), vehicle: carboxymethylcellulose (CMC) 105 % of control | dose: 45.0 mg/kg/injection, schedule: Q01DX Z (ip), vehicle: carboxymethylcellulose (CMC) 110 % of control

COc1ccc(NC(=O)NC2CCCCC2)c(Cl)c1
inactive: [1] 97 % of control | [2] 102 % of control | [3] 94 % of control

CCOC(=O)CSc1ccc([N+](=O)[O-])cc1Cl
inactive: dose: 100.0 mg/kg/injection, schedule: Q01DX009 (ip), vehicle: Klucel (hydroxypropylcellulose) (HPC) 102 % of control | [1] 96 % of control and 101 % of control | dose: 200.0 mg/kg/injection, schedule: Q01DX009 (ip), vehicle: Klucel (hydroxypropylcellulose) (HPC) 106 % of control | [2] 104 % of control and 106 % of control | dose: 400.0 mg/kg/injection, schedule: Q01DX009 (ip), vehicle: Klucel (hydroxypropylcellulose) (HPC) 104 % of control | [3] 95 % of control and 101 % of control

O=[N+]([O-])c1ccc(C=Nc2cc(Cl)ccc2Cl)s1
inactive: [4] 98 % of control | [5] 88 % of control

COC(=O)c1ccccc1Cn1ccnc1
inactive: [7] 108 % of control | dose: 100.0 mg/kg/injection, schedule: Q01DX009 (ip), vehicle: saline 102 % of control and 92 % of control | dose: 100.0 mg/kg/injection, schedule: Q04DX002 (ip), vehicle: saline 96 % of control and 103 % of control | [16] 115 % of control | [8] 101 % of control | dose: 200.0 mg/kg/injection, schedule: Q01DX009 (ip), vehicle: saline 94 % of control and 97 % of control | dose: 200.0 mg/kg/injection, schedule: Q04DX002 (ip), vehicle: saline 103 % of control and 105 % of control | [18] 101 % of control | [9] 97 % of control | dose: 400.0 mg/kg/injection, schedule: Q04DX002 (ip), vehicle: saline 100 % of control

O=C(O)/C=C\C(=O)NCC1CCC(CNC(=O)/C=C\C(=O)O)CC1 (centres undefined)
inactive: [13] 98 % of control | [14] 100 % of control | dose: 400.0 mg/kg/injection, schedule: Q04DX003 (ip), vehicle: Klucel (hydroxypropylcellulose) (HPC) 102 % of control

N#Cc1ccc(NC(=O)NNC(=O)CCCC(=O)NNC(=O)Nc2ccc(C#N)cc2)cc1
inactive: dose: 50.0 mg/kg/injection, schedule: Q01DX001 (ip), vehicle: saline 95 % of control | [7] 97 % of control | [8] 101 % of control | [9] 95 % of control

Cc1ccc(N=Nc2ccc(N(C)C)cc2)c2cccnc12
inactive: [4] 113 % of control | [5] 95 % of control

NC(=O)c1cn[nH]c1/N=N/N1CCCC1C(=O)O (centres undefined)
inactive: dose: 100.0 mg/kg/injection, schedule: Q01DX001 (ip), vehicle: saline with Tween-80 100 % of control | [15] 111 % of control | [4] 104 % of control | dose: 200.0 mg/kg/injection, schedule: Q01DX001 (ip), vehicle: saline with Tween-80 107 % of control | [17] 97 % of control | [5] 104 % of control | dose: 400.0 mg/kg/injection, schedule: Q01DX001 (ip), vehicle: saline with Tween-80 102 % of control | dose: 400.0 mg/kg/injection, schedule: Q01DX009 (ip), vehicle: saline with Tween-80 94 % of control | [6] 106 % of control

CCOC(=O)CCCCCC(C)=O
inactive: dose: 100.0 mg/kg/injection, schedule: Q04DX003 (ip), vehicle: acetone 103 % of control | dose: 200.0 mg/kg/injection, schedule: Q04DX003 (ip), vehicle: acetone 100 % of control | dose: 400.0 mg/kg/injection, schedule: Q04DX003 (ip), vehicle: acetone 95 % of control

O=[N+]([O-])c1ccc(/C=N/Nc2ccnc3cc(Cl)ccc23)s1
inactive: [16] 96 % of control | [18] 96 % of control | [19] 96 % of control

From PubChem BioAssay AID248 (DTP/NCI, 2004)
